ChEMBL document CHEMBL1201862, “PubChem BioAssay data set” (2004)
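Each compound was tested at five concentrations against cells in 96-well plates for 48 hours. Here, GI50 denotes the concentration required for 50% inhibition of growth.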 Activity calls are given as the source filed them. Cut-off read from the data, not from the text of the source: active = GI50 up to about 1.1 µM and inactive = higher.

Experiments:
Test in all cases: NCI-60 cell line screen, 48 h
SK-OV-3 = tested on: SK-OV-3
ACHN = tested on: ACHN
SK-MEL-28 = tested on: SK-MEL-28
HOP-62 = tested on: HOP-62
HCC 2998 = tested on: HCC 2998
COLO 205 = tested on: COLO 205
U-251 = tested on: U-251
SW-620 = tested on: SW-620
OVCAR-4 = tested on: OVCAR-4
NCI-H522 = tested on: NCI-H522
MDA-MB-231 = tested on: MDA-MB-231
SF-295 = tested on: SF-295
CAKI-1 = tested on: CAKI-1
EKVX = tested on: EKVX
T47D = tested on: T47D
HCT-15 = tested on: HCT-15
M14 = tested on: M14
SF-268 = tested on: SF-268
NCI-H460 = tested on: NCI-H460
BT-549 = tested on: BT-549

Compound	GI50 (SK-OV-3)	GI50 (ACHN)	GI50 (SK-MEL-28)	GI50 (HOP-62)	GI50 (HCC 2998)	GI50 (COLO 205)	GI50 (U-251)	GI50 (SW-620)	GI50 (OVCAR-4)	GI50 (NCI-H522)	GI50 (MDA-MB-231)	GI50 (SF-295)	GI50 (CAKI-1)	GI50 (EKVX)	GI50 (T47D)	GI50 (HCT-15)	GI50 (M14)	GI50 (SF-268)	GI50 (NCI-H460)	GI50 (BT-549)
N=C(N)/N=C(\N)Nc1cnccn1	> 100 µM (inactive)	> 100 µM (inactive)	> 100 µM (inactive)	> 100 µM (inactive)	> 100 µM (inactive)	> 100 µM (inactive)	> 100 µM (inactive)	> 100 µM (inactive)	> 100 µM (inactive)	> 100 µM (inactive)	> 100 µM (inactive)	> 100 µM (inactive)	> 100 µM (inactive)	> 100 µM (inactive)	> 100 µM (inactive)	> 100 µM	> 100 µM (inactive)			
CC1(C)C(CCO)CC1n1ccc(=O)[nH]c1=O (centres undefined)	> 100 µM (inactive)	> 100 µM (inactive)	> 100 µM (inactive)	> 100 µM (inactive)	> 100 µM (inactive)		> 100 µM (inactive)	> 100 µM (inactive)	> 100 µM (inactive)		> 100 µM (inactive)	> 100 µM (inactive)	> 100 µM (inactive)	> 100 µM (inactive)	> 100 µM (inactive)	> 100 µM	> 100 µM (inactive)	> 100 µM (inactive)		
COc1ccc(-c2cc(O)c3cc4c(cc3n2)OCO4)c(OC)c1OC	50.8 µM (inactive)	76.2 µM (inactive)	96.6 µM (inactive)	87.1 µM (inactive)	> 100 µM (inactive)	53.1 µM (inactive)	> 100 µM (inactive)	84.9 µM (inactive)	> 100 µM (inactive)	96.2 µM (inactive)		76.6 µM (inactive)	> 100 µM (inactive)	> 100 µM (inactive)		> 100 µM	68.1 µM (inactive)	> 100 µM (inactive)	33.6 µM (inactive)	
O=C1C(=c2cc3c(c4ccccc24)=NC24CCCCC2C(c2ccccc2)C=C(c2ccccc2)N34)C(=O)c2ccccc21 (centres undefined)	> 100 µM (inactive)	54.3 µM (inactive)	47.2 µM (inactive)	74 µM (inactive)		33 µM (inactive)	36.8 µM (inactive)	37.7 µM (inactive)	15.5 µM (inactive)	16.7 µM (inactive)	15.4 µM (inactive)	> 100 µM (inactive)	53 µM (inactive)	12.7 µM (inactive)	3.48 µM (inactive)		44 µM (inactive)	30.3 µM (inactive)		
Brc1ccc(-c2cc(-c3ccc4c(c3)OCO4)c(-c3cccs3)n2Cc2ccccc2)cc1	> 100 µM (inactive)	> 100 µM (inactive)	> 100 µM (inactive)	> 100 µM (inactive)	> 100 µM (inactive)	> 100 µM (inactive)	> 100 µM (inactive)	> 100 µM (inactive)	> 100 µM (inactive)		> 100 µM (inactive)	> 100 µM (inactive)	> 100 µM (inactive)	> 100 µM (inactive)	> 100 µM (inactive)	> 100 µM	> 100 µM (inactive)	> 100 µM (inactive)	> 100 µM (inactive)	
N#Cc1c(-c2ccc(Cl)cc2)c2c([nH]c1=O)-c1ccccc1SC2	32.7 µM (inactive)		> 100 µM (inactive)	32.1 µM (inactive)		22.3 µM (inactive)	25.6 µM (inactive)	> 100 µM (inactive)	38.6 µM (inactive)		29.1 µM (inactive)	28 µM (inactive)	47.2 µM (inactive)	21.1 µM (inactive)		70.6 µM	> 100 µM (inactive)	41.9 µM (inactive)	46.3 µM (inactive)	> 100 µM (inactive)
c1ccc2cc3[s+]snc3cc2c1	> 100 µM (inactive)	> 100 µM (inactive)	> 100 µM (inactive)	> 100 µM (inactive)	> 100 µM (inactive)	> 100 µM (inactive)	85.9 µM (inactive)	> 100 µM (inactive)	> 100 µM (inactive)	> 100 µM (inactive)		> 100 µM (inactive)	> 100 µM (inactive)	> 100 µM (inactive)		> 100 µM	> 100 µM (inactive)	> 100 µM (inactive)	> 100 µM (inactive)	
CC(N)Cc1ccc(C(=O)Cl)cc1 (centres undefined)	> 100 µM (inactive)	> 100 µM (inactive)	> 100 µM (inactive)	> 100 µM (inactive)	> 100 µM (inactive)	> 100 µM (inactive)	> 100 µM (inactive)	> 100 µM (inactive)	> 100 µM (inactive)	> 100 µM (inactive)		> 100 µM (inactive)	> 100 µM (inactive)	> 100 µM (inactive)		> 100 µM	> 100 µM (inactive)	> 100 µM (inactive)	> 100 µM (inactive)	
